{"source": "patent US20190216848A1", "about": "“New Use of Product for Skin Treatment” (BioCool AB, priority 2016, published 2019)", "key": {"[1]": {"system": "patients with acne vulgaris", "details": "references (9), (10), (12); cited from earlier work"}, "[2]": {"system": "patients diagnosed with moderate acne (Acne vulgaris)", "experiment": "Acne vulgaris pilot study: DLQ (Dermatology Life Quality Index) symptom rating", "assay_type": "in vivo, human", "source_text": "(§1) Statistical Methods: Dropouts included in the result were 2 patients. These patients were followed up at the doctor's appointment number 2 and the results were included in the so-called “intention to treat” where the values produced two visits was the same for the coming weeks for follow-up visits. The statistical analysis used was t-test and Wilcoxon rank-sum test.\n(§2) Each patient received the sodium percarbonate at home. […] This procedure was repeated daily by the patient. […] Follow-up visits occurred weekly for four weeks.\nPhotography: Each patient was photographed prior to initiation of treatment, and weekly for four weeks. Portrait photo is taken from the front and profile of each view of the face. Photos were taken with the same camera and camera settings and the same photographer. The same light was used by 45-degree angle. However, technology is not validated and all the photos were not taken exactly the same. Each patient was encoded by the study manager with a number. After all the photos were taken, outside observers (fellow doctor) counted the number of acne papule for each patient for each visit, without knowing the visit week during which the photo was taken. […] Results were calculated as an average of the number of acne papule for each visit at the group level. […] Even this was calculated with the average at group level. […]"}, "[3]": {"system": "patients diagnosed with moderate acne (Acne vulgaris)", "details": "four weeks of treatment", "quoted_text": "Treatment and follow-up: On the first visit to a doctor, patients received the same information and instructions as given by the manufacturer BioCool®. Each patient received the sodium percarbonate at home. The jars of powder were unmarked but if the patient wished to know the content they were informed. All processing was done at residences of the patient by the patient. 5 ml of sodium percarbonate was dissolved in 5 ml of water at a temperature of 35-40° C. to form a solution. The solution was applied to the face using the fingers, and washed away with tap water after 5 minutes. This procedure was repeated daily by the patient. After about one hour after the treatment the subjects could, if desired, lubricate the skin with a moisturizing product, allowing enough time for the skin pores to close up for any additional product. Follow-up visits occurred weekly for four weeks. At each visit, the patient had completed the rating scale DLQ (Dermatology Life Quality Index), they were photographed and subject to an open interview.\nInterview: The patient's subjective experience was investigated with a semi-structured interview based on the query field (8). The interview was conducted by research doctors. […] No recording method was used."}, "[4]": {"system": "patients diagnosed with moderate acne (Acne vulgaris)", "experiment": "Acne vulgaris pilot study: blinded acne papule counting from photographs", "assay_type": "in vivo, human", "source_text": "A study consisted of a total of 16 patients, 2 males and 14 females. Mean age was 28±7 years. The study included men and women, previously healthy, between 18-45 years, not using contraception, not breastfeeding or pregnant, and having been diagnosed with moderate acne. Patients with ongoing treatment for acne vulgaris were excluded or treatment was withdrawn one month before the start of the study. Also, patients who could not follow instructions and who were assumed to have poor compliance were excluded.\nas §1, §2\nPhotography: Each patient was photographed prior to initiation of treatment, and weekly for four weeks. Portrait photo is taken from the front and profile of each view of the face. Photos were taken with the same camera and camera settings and the same photographer. The same light was used by 45-degree angle. However, technology is not validated and all the photos were not taken exactly the same. Each patient was encoded by the study manager with a number. After all the photos were taken, outside observers (fellow doctor) counted the number of acne papule for each patient for each visit, without knowing the visit week during which the photo was taken. The number of acne papules was summed up by frontal view, as well as by the two side views. Results were calculated as an average of the number of acne papule for each visit at the group level. DLQ survey summed with points for each patient for each visit. Even this was calculated with the average at group level."}, "[5]": {"experiment": "Duration of effectiveness of the prepared aqueous solution", "assay_type": "physicochemical", "details": "1-5 g in 0.05-1 dl of water at 35-40° C.; effectiveness gradually decreases", "method": "The solution obtained according to the method above is effective for about 24 h. […] A new solution must be prepared after 24 hours as the effectiveness of the singlet oxygen in the solution has decreased below an efficient level for treatment. The solution is to be applied to the face and/or affected skin at least once daily."}, "[6]": {"system": "individuals with diabetes and neuropathy, feet with moderate to severe skin conditions", "experiment": "Diabetic Peripheral Neuropathy foot bath study: skin condition of the feet by photos", "assay_type": "in vivo, human", "details": "for Condition of the feet / skin condition, visual (photos): all patients included, daily foot bath per study protocol, 6 weeks, preliminary results", "method": "I. Improvement in skin condition evaluated by photos according to a pre-set scale (1-5): The target population include in this evaluation are adult individuals with diabetes and neuropathy, with feet with moderate to severe skin conditions 7.1.3 Frequency of application. Daily application for 6 weeks or until the signs and symptoms are cleared, then once a week. 1. Start by placing the feet in the footbath, containing 2-3 litres (about 1 gallon) of lukewarm water (about 38° C.). Measure out 15 ml (about 1 tbs.) of granules and add to the footbath. NB! The order is important, the feet must be in the bath before adding the granules. 2. Bathe the feet for about 20 minutes This is a 6-week, single centre, open label evaluation conducted in patients suffering from Diabetic Feet of neuropathic origin with moderate to severe non ulcer pathology (dry skin, cracks, callosities) 9.2 STUDY FLOW CHART visits 0 and 6 weeks for photos, skin evaluation, test protocol and evaluation of safety and concordance At each visit a required medical evaluations is performed at inclusion (0) and 6 weeks (+/−3 days). A photograph is performed and a test protocol is followed regarding skin condition. Any local and general intercurrent events (expected or unexpected) are recorded. Patients receive a patient care diary at their first visit. Investigators are allowed to see patients more frequently if required. 11.3 EVALUATION CRITERIA Improvement of skin condition evaluated by photos analysed by independent observers"}, "[7]": {"system": "microorganisms", "details": "within the range of 0.5-4% of hydrogen peroxide"}}, "note": "“Also recorded” adds a separate entry of the source.", "data": [{"smiles": "COc1ccc(-c2ccc3cc(C(=O)O)ccc3c2)cc1C12CC3CC(CC(C3)C1)C2", "note": "[Adapalene]", "values": [{"measurement": "Number of acne papules / efficacy in literature study", "setting": "[1]", "result": "significant reduced"}, {"measurement": "Safety / tolerance in literature study", "setting": "[1]", "result": "safe and effective"}]}, {"smiles": "O=C([O-])[O-].O=C([O-])[O-].OO.OO.OO.[Na+].[Na+].[Na+].[Na+]", "note": "[Sodium percarbonate, sodium percarbonate]", "values": [{"measurement": "DLQ symptom rating, median", "setting": "[2]; after 4 weeks of daily topical treatment, interquartile range 2, p 0.002", "result": 1.5}, {"measurement": "DLQ symptom rating, median", "setting": "[2]; before treatment (baseline), interquartile range 4", "result": 3}, {"measurement": "Patients' description of their skin in interviews", "setting": "[3]", "result": "cleaner, smoother, softer and firmer"}, {"measurement": "Number of acne papule over time (in words)", "setting": "[4]; 4 weeks of treatment", "result": "clearly reduced; also recorded: significantly decreased"}, {"measurement": "Papule count, mean", "setting": "[4]; after 4 weeks of daily topical treatment (5 ml in 5 ml water, 5 minutes), SD 10.2, p <0.001 vs before", "result": 18.3}, {"measurement": "Papule count, mean", "setting": "[4]; before treatment (baseline), 16 patients, SD 12.4", "result": 25.4}, {"measurement": "Time to apparent effect on the appearance of new papules", "setting": "[4]; topical treatment of Acne vulgaris", "result": "≤ 2", "unit": "weeks"}, {"measurement": "Time the prepared solution is effective", "setting": "[5]", "result": "about 24 h"}, {"measurement": "Condition of the feet (photos), patient No. 01", "setting": "[6]; FIG. 4, after 6 weeks of treatment", "result": "The large crack on the right heel has significantly improved"}, {"measurement": "Condition of the feet (photos), patient No. 06", "setting": "[6]; FIG. 5, before vs after treatment", "result": "the ulcer has declined in size"}, {"measurement": "Condition of the feet (photos), patient No. 9", "setting": "[6]; FIG. 6, before vs after treatment", "result": "the hardened patches are no longer present"}, {"measurement": "Condition of the feet / skin condition, visual (photos)", "setting": "[6]", "result": "significant visual improvement"}, {"measurement": "Condition of the feet / skin condition, visual (photos)", "setting": "[6]; listed as sodium percarbonate", "result": "significant improvement of the skin condition"}]}, {"smiles": "O=C(OOC(=O)c1ccccc1)c1ccccc1", "note": "[benzoyl peroxide]", "values": [{"measurement": "Number of acne papules / efficacy in literature study", "setting": "[1]", "result": "significant reduced"}, {"measurement": "Safety / tolerance in literature study", "setting": "[1]", "result": "safe and effective"}]}, {"smiles": "OO", "note": "[hydrogen peroxide]", "values": [{"measurement": "Number of acne papules / efficacy in literature study", "setting": "[1]", "result": "at least as good"}, {"measurement": "Safety / tolerance in literature study", "setting": "[1]", "result": "better tolerance for skin"}, {"measurement": "Effect on killing off microorganisms with increasing concentration", "setting": "[7]", "result": "practically the same"}]}]}
